From patent EP0301861A1, “Cell proliferation inhibitors” (Takeda Chemical Industries, Ltd., priority 1987, dated 1989) come the findings set out here.

≈ marks a conversion by molar mass, not a printed value.

The subject of experiment [1] is human umbilical venous endothelial cells. Nature of the experiment: Inhibition of proliferation of human umbilical venous endothelial cells (MTT). The conditions noted are these: Endothelial cell, 72 h, rFGF 2 ng/ml, 3 days of incubation, OD₅₉₀, read-out: IC₅₀. Format: cell-based. The procedure:
Experiment 3 [Evaluation of inhibition of proliferation of human umbilical venous endothelial cells]
The human vascular endothelial cells were obtained by subculture of the cells, which had been obtained from human umbilical vein by perfusion with tripsin solution, in the culture medium which had been prepared by addition of 2.5% bovine fetal serum and 2.0 ng/ml of human recombinant fibroblast growth factor (abbreviated as rFGF hereinafter; prepared in Biotechnology Institute of our company) to GIT medium (Daigo Eiyou Kagaku).
A hundred µl of the suspension of 2 x 10³ human vascular endothelial cells was introduced to a 96-well culture plate (Nunc, 1-67008) and incubated in a gas-controlled thermostat. On the next day rFGF and 100 µl of a medium containing different concentrations of the test substance were added, so that the final concentration of rFGF might be 2 ng/ml. The test substance was dissolved in dimethylsufoxide (DMSO hereinafter) solution, and the resultant solution was diluted so that the final DMSO concentration might be 0.25% or less. After 3 days of incubation, the culture medium containing the test substance was aspirated off, 100 µl of 1 mg/ml MTT solution (3-(4,5-dimethyl-2-thiazolyl)-2,5-diphenyl-2H-tetrazolium bromide dissolved in the culture medium) was added, and the mixture was kept warm for 4 hours. Then 100 µl of 10% SDS solution (aqueous solution of sodium dodecylsulfate) was added and kept warm for 5 - 6 hours, so that the cells and MTT pigment were solubilized, and the OD₅₉₀ value was determined by spectrophotometer. The OD value of the control sample containing no test substance was taken as 100%, and the endothelial cell growth-inhibitory activity of the test substance was compared on the basis of the IC₅₀ value, the concentration of a compound at which 50% OD value is observed.

For experiment [2], the target named is T1, 5-lipoxygenase from guinea pig polymorphonuclear leukocytes (Cavia porcellus, UniProt A0A286X958).
T1 construct: from guinea pig peritoneal macrophage; from tissue
T1 sequence (A0A286X958 1-674): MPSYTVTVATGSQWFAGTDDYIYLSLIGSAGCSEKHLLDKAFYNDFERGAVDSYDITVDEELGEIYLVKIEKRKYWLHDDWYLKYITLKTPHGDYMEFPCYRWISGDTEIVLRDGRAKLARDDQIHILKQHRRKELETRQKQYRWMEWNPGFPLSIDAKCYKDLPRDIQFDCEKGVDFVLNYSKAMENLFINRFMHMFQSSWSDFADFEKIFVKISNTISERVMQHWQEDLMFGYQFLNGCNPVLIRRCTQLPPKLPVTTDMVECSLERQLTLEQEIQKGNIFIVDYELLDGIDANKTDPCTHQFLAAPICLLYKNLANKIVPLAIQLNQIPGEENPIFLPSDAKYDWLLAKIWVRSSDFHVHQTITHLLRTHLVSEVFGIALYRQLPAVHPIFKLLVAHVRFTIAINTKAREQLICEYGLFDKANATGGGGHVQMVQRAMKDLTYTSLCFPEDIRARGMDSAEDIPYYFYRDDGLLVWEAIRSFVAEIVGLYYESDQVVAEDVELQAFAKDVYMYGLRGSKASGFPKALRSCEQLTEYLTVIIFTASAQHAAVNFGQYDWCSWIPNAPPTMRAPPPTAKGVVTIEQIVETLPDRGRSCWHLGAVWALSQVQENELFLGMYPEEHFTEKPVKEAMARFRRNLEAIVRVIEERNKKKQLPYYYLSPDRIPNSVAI
Nature of the experiment: Inhibition of 5-lipoxygenase. Format: biochemical. Particulars: 10⁻⁵ M; 25µM [1-¹⁴C]arachidonic acid as substrate, 25°C. The procedure:
According to the routine method these ingredients were mixed and compressed by a tableting machine. Experiment 1 [Inhibition (10⁻⁵ M) of 5-lipoxygenase from guinea pig polymorphonuclear leukocytes]
5-Lipoxygenase used was the enzyme preparation prepared from guinea pig […]. For determination of the activity of lypoxygenase 25µM [1-¹⁴C]arachidonic acid (5 x 10⁴ cpm) as the substrate, 50 mM phosphate buffer solution (pH 7.4), 2 mM CaCl₂, 2 mM ATP, and a reaction mixture containing the enzyme (200µl) were used. After preincubation at 25°C for 2 minutes, [1-¹⁴C]arachidonic acid (5 x 10⁴ cpm) was added, and allowed to react at 25°C for 3 minutes; the resultant mixture was made acidic, and arachidonic acid and its metabolites were extracted with ether. Radioactivity of the ether layer was determined by silica gel thin layer chromatography using a mixture of petroleum ether:ethylether:acetic acid (15:85:0.1) as the eluant and the elution was performed at -10°C. After elution, the thin layer plate was subjected to autoradiography, the radioactive fractions were scraped out, and the radioactivity of the product was determined by counting. The agent was added two minutes before the beginning of the reaction.

For experiment [3], the system named is IL-2-dependent cells (NKC-3). Nature of the experiment: Inhibition of growth of IL-2-dependent cells (NKC-3) (MTT). Format: cell-based. Particulars: NKC-3 cells with IL-2, 37°C for 20 hours, absorbance at 590 nm, read-out: IC₅₀. The procedure:
Experiment 4 [Evaluation of inhibition of growth of IL-2-dependent cells (NKC-3)]
To each well of a 96-well microplate, 50 µl of NKC-3 cells (4 x 10⁵ cells/well), 20 µl of IL-2 solution (0.067 U/ml), and 40 µl of the test substance (DMSO solution) were added, which was incubated at 37°C for 20 hours (culture medium: RPMI1640-20%ECS). To each well 20 µl of MTT solution was added,which was kept at 37°C for 4 hours. Then 100 µl of 10% SDS solution was added to each well, which was kept still at 37°C overnight so that the cells and MTT pigment were solubilized, and the absorbance at 590 nm was measured by spectrophotometer. […] Compound No. IC₅₀ (M) 5 4.1 x 10⁻⁵

As for `CC1=C(C)C(=O)C(C(CCC(=O)NO)c2ccccc2)=C(C)C1=O` (stereo not shown) [Compound No.1], the IC50 in experiment [1] stood at 10 mg/L (≈ 30.5 µM). Regarding `CC1=C(C)C(=O)C(C(CCCCCC(=O)NO)c2ccccc2)=C(C)C1=O` (stereo not shown) [Compound No.5], the “Inhibitory activity (%)” value in experiment [2] is reported as 74.6%. In addition, the IC50 turned out to be 0.63 mg/L (≈ 1.71 µM) in experiment [1] and 41 µM in experiment [3]. For `CC1=C(C)C(=O)C(C(CCCCCC(=O)NO)c2ccc(F)cc2)=C(C)C1=O` (stereo not shown) [Compound No.6, 7-(4-fluorophenyl)-7-(3,5,6-trimethyl-1,4-benzoquinon-2-yl)-heptanohydroxamic acid], the “Inhibitory activity (%)” value in experiment [2] is 79.3%. The IC50 in experiment [1] came out at 1.25 mg/L (≈ 3.23 µM). Regarding `COc1ccc(C(CCCCCC(=O)NO)C2=C(C)C(=O)C(C)=C(C)C2=O)cc1` (stereo not shown) [Compound No.8, 7-(4-methoxyphenyl)-7-(3,5,6-trimethyl-1,4-benzoquinon-2-yl)-heptanohydroxamic acid], in experiment [2], the “Inhibitory activity (%)” value is recorded as 83.8%. The IC50 in experiment [1] stood at 0.63 mg/L (≈ 1.58 µM). Turning to `CC1=C(C(CCCCC(=O)NO)c2cccs2)C(=O)c2ccccc2C1=O` (stereo not shown) [Compound No.13], in experiment [1], the IC50 is less than 0.08 mg/L. For the compound `CC1=C(C)C(=O)C(C(CCCCC(=O)NO)c2ccccc2)=C(C)C1=O` (stereo not shown) [compound 2], in experiment [1], the IC50 was 0.63 mg/L (≈ 1.77 µM). With `CC1=C(C)C(=O)C(C(CCCCC(=O)NO)c2ccc(F)cc2)=C(C)C1=O` (stereo not shown) [compound 3], the IC50 in experiment [1] turned out to be 1.25 mg/L (≈ 3.35 µM). The same measure, in the same setting: with `COc1ccc(C(CCCCC(=O)NO)C2=C(C)C(=O)C(C)=C(C)C2=O)cc1` (stereo not shown) [compound 4] the figure was 0.63 mg/L (≈ 1.63 µM); with `CC1=C(C)C(=O)C(C(CCCCCC(=O)NO)c2ccc(C)cc2)=C(C)C1=O` (stereo not shown) [compound 7], 1.25 mg/L (≈ 3.26 µM).

With `CC1=C(C)C(=O)C(C(CCCCCC(=O)NO)c2ccc(Cl)cc2)=C(C)C1=O` (stereo not shown) [compound 9], the IC50 in experiment [1] is 1.25 mg/L (≈ 3.09 µM). On the same count and under the same terms, under `CC1=C(C)C(=O)C(C(CCCCCCC(=O)NO)c2ccccc2)=C(C)C1=O` (stereo not shown) [compound 10] stands 25 mg/L (≈ 65.2 µM).

Regarding `CC1=C(C(CCCC(=O)NO)c2ccccc2)C(=O)c2ccccc2C1=O` (stereo not shown) [compound 11], the IC50 in experiment [1] worked out at 5 mg/L (≈ 13.8 µM).

In the case of `CC1=C(C(CCCCC(=O)NO)c2ccccc2)C(=O)c2ccccc2C1=O` (stereo not shown) [compound 12], the IC50 in experiment [1] came out at 0.08 mg/L (≈ 0.212 µM).

`CC1=C(C(CCCCCC(=O)NO)c2ccc(F)cc2)C(=O)c2ccccc2C1=O` (stereo not shown) [compound 14]: the “Inhibitory activity (%)” value in experiment [2] stood at 89.7%. The IC50 in experiment [1] is less than 0.63 mg/L. With `CC1=C(C(CCCCCCC(=O)NO)c2ccccc2)C(=O)c2ccccc2C1=O` (stereo not shown) [compound 15], in experiment [1], the IC50 is less than 0.63 mg/L. Turning to `COC1=C(OC)C(=O)C(C(CCCCCC(=O)NO)c2ccccc2)=C(C)C1=O` (stereo not shown) [compound 16], the IC50 in experiment [1] is 1.25 mg/L (≈ 3.11 µM). As to `COC1=C(OC)C(=O)C(C(CCCC(=O)NO)c2ccccc2)=C(C)C1=O` (stereo not shown) [compound 17], the IC50 in experiment [1] is 20 mg/L (≈ 53.6 µM).
